According to ChEMBL document CHEMBL3045472, “Synthesis and evaluation of some novel methylene-bridged aryl semicarbazones as potential anticonvulsant agents” (Med Chem Res, 2012):

Experiments:
[1] = tested on: Mus musculus; assay: Anticonvulsant activity in Mus musculus albino (mouse) assessed as protection against pentylenetetrazole-induced seizure at 300 mg/kg, ip administered 30 min followed by pentylenetetrazole induction measured for 30 min relative to control; type: functional; conditions: route intraperitoneal
[2] = tested on: Mus musculus; assay: Anticonvulsant activity in Mus musculus albino (mouse) assessed as protection against pentylenetetrazole-induced seizure at 100 mg/kg, ip administered 30 min followed by pentylenetetrazole induction measured for 30 min relative to control; type: functional; conditions: route intraperitoneal
[3] = tested on: Mus musculus; assay: Anticonvulsant activity in Mus musculus albino (mouse) assessed as decrease in pentylenetetrazole-induced total seizure time at 300 mg/kg, ip administered 30 min followed by pentylenetetrazole induction measured for 30 min (reference value: 9.9 +/- 1.3 secs); type: functional; conditions: route intraperitoneal
[4] = tested on: Mus musculus; assay: Anticonvulsant activity in Mus musculus albino (mouse) assessed as decrease in pentylenetetrazole-induced total seizure time at 100 mg/kg, ip administered 30 min followed by pentylenetetrazole induction measured for 30 min (reference value: 9.9 +/- 1.3 secs); type: functional; conditions: route intraperitoneal
[5] = tested on: Mus musculus; assay: Anticonvulsant activity in Mus musculus albino (mouse) assessed as increase in onset of pentylenetetrazole-induced seizure at 300 mg/kg, ip administered 30 min followed by pentylenetetrazole induction measured for 30 min (reference value: 184 +/- 32 secs); type: functional; conditions: route intraperitoneal
[6] = tested on: Mus musculus; assay: Anticonvulsant activity in Mus musculus albino (mouse) assessed as increase in onset of pentylenetetrazole-induced seizure at 100 mg/kg, ip administered 30 min followed by pentylenetetrazole induction measured for 30 min (reference value: 184 +/- 32 secs); type: functional; conditions: route intraperitoneal
[7] = tested on: Mus musculus; assay: Anticonvulsant activity in pentylenetetrazole-induced Mus musculus albino (mouse) seizure model assessed as death time at 300 mg/kg, ip administered 30 min followed by pentylenetetrazole induction measured for 30 min (reference value: 416 +/- 58.2 secs); type: functional; conditions: route intraperitoneal
[8] = tested on: Mus musculus; assay: Anticonvulsant activity in pentylenetetrazole-induced Mus musculus albino (mouse) seizure model assessed as death time at 100 mg/kg, ip administered 30 min followed by pentylenetetrazole induction measured for 30 min (reference value: 416 +/- 58.2 secs); type: functional; conditions: route intraperitoneal
[9] = tested on: Mus musculus; assay: Anticonvulsant activity in pentylenetetrazole-induced Mus musculus albino (mouse) seizure model assessed as survival at 300 mg/kg, ip administered 30 min followed by pentylenetetrazole induction measured for 30 min relative to control; type: functional; conditions: 0.5 h, route intraperitoneal
[10] = tested on: Mus musculus; assay: Anticonvulsant activity in pentylenetetrazole-induced Mus musculus albino (mouse) seizure model assessed as survival at 100 mg/kg, ip administered 30 min followed by pentylenetetrazole induction measured for 30 min relative to control; type: functional; conditions: 0.5 h, route intraperitoneal
[11] = tested on: Mus musculus; assay: Anticonvulsant activity in Mus musculus albino (mouse) assessed as decrease in pentylenetetrazole-induced total seizure time at 50 mg/kg, ip administered 30 min followed by pentylenetetrazole induction measured for 30 min (reference value: 9.9 +/- 1.3 secs); type: functional; conditions: route intraperitoneal
[12] = tested on: Mus musculus; assay: Anticonvulsant activity in Mus musculus albino (mouse) assessed as increase in onset of pentylenetetrazole-induced seizure at 50 mg/kg, ip administered 30 min followed by pentylenetetrazole induction measured for 30 min (reference value: 184 +/- 32 secs); type: functional; conditions: route intraperitoneal
[13] = tested on: Mus musculus; assay: Neurotoxicity in Mus musculus albino (mouse) assessed as minimal motor impairment at 300 mg/kg, ip measured for 180 secs by rotorod test; type: toxicity, organism-based; set-up: dose 300 mg/kg, route intraperitoneal; conditions: in vivo, 0.05 h
[14] = tested on: Mus musculus; assay: Anticonvulsant activity in pentylenetetrazole-induced Mus musculus albino (mouse) seizure model assessed as death time at 50 mg/kg, ip administered 30 min followed by pentylenetetrazole induction measured for 30 min (reference value: 416 +/- 58.2 secs); type: functional; conditions: route intraperitoneal
[15] = tested on: Mus musculus; assay: Anticonvulsant activity in pentylenetetrazole-induced Mus musculus albino (mouse) seizure model assessed as survival at 50 mg/kg, ip administered 30 min followed by pentylenetetrazole induction measured for 30 min relative to control; type: functional; conditions: 0.5 h, route intraperitoneal
[16] = tested on: Mus musculus; assay: Anticonvulsant activity in Mus musculus albino (mouse) assessed as protection against pentylenetetrazole-induced seizure at 50 mg/kg, ip administered 30 min followed by pentylenetetrazole induction measured for 30 min relative to control; type: functional; conditions: route intraperitoneal
[17] = tested on: Mus musculus; assay: Anticonvulsant activity in Mus musculus albino (mouse) assessed as decrease in pentylenetetrazole-induced total seizure time at 15 mg/kg, ip administered 30 min followed by pentylenetetrazole induction measured for 30 min (reference value: 9.9 +/- 1.3 secs); type: functional; conditions: route intraperitoneal
[18] = tested on: Mus musculus; assay: Anticonvulsant activity in Mus musculus albino (mouse) assessed as increase in onset of pentylenetetrazole-induced seizure at 15 mg/kg, ip administered 30 min followed by pentylenetetrazole induction measured for 30 min (reference value: 184 +/- 32 secs); type: functional; conditions: route intraperitoneal
[19] = tested on: Mus musculus; assay: Neurotoxicity in Mus musculus albino (mouse) assessed as minimal motor impairment at 15 mg/kg, ip measured for 180 secs by rotorod test; type: toxicity, organism-based; set-up: dose 15 mg/kg, route intraperitoneal; conditions: in vivo, 0.05 h
[20] = tested on: Mus musculus; assay: Anticonvulsant activity in pentylenetetrazole-induced Mus musculus albino (mouse) seizure model assessed as death time at 15 mg/kg, ip administered 30 min followed by pentylenetetrazole induction measured for 30 min (reference value: 416 +/- 58.2 secs); type: functional; conditions: route intraperitoneal
[21] = tested on: Mus musculus; assay: Anticonvulsant activity in pentylenetetrazole-induced Mus musculus albino (mouse) seizure model assessed as survival at 15 mg/kg, ip administered 30 min followed by pentylenetetrazole induction measured for 30 min relative to control; type: functional; conditions: 0.5 h, route intraperitoneal
[22] = tested on: Mus musculus; assay: Anticonvulsant activity in Mus musculus albino (mouse) assessed as protection against pentylenetetrazole-induced seizure at 15 mg/kg, ip administered 30 min followed by pentylenetetrazole induction measured for 30 min relative to control; type: functional; conditions: route intraperitoneal
[23] = tested on: Mus musculus; assay: Anticonvulsant activity in Mus musculus albino (mouse) assessed as decrease in pentylenetetrazole-induced total seizure time at 220 mg/kg, ip administered 30 min followed by pentylenetetrazole induction measured for 30 min (reference value: 9.9 +/- 1.3 secs); type: functional; conditions: route intraperitoneal
[24] = tested on: Mus musculus; assay: Anticonvulsant activity in Mus musculus albino (mouse) assessed as increase in onset of pentylenetetrazole-induced seizure at 220 mg/kg, ip administered 30 min followed by pentylenetetrazole induction measured for 30 min (reference value: 184 +/- 32 secs); type: functional; conditions: route intraperitoneal
[25] = tested on: Mus musculus; assay: Neurotoxicity in Mus musculus albino (mouse) assessed as minimal motor impairment at 220 mg/kg, ip measured for 180 secs by rotorod test; type: toxicity, organism-based; set-up: dose 220 mg/kg, route intraperitoneal; conditions: in vivo, 0.05 h
[26] = tested on: Mus musculus; assay: Anticonvulsant activity in pentylenetetrazole-induced Mus musculus albino (mouse) seizure model assessed as death time at 220 mg/kg, ip administered 30 min followed by pentylenetetrazole induction measured for 30 min (reference value: 416 +/- 58.2 secs); type: functional; conditions: route intraperitoneal
[27] = tested on: Mus musculus; assay: Anticonvulsant activity in pentylenetetrazole-induced Mus musculus albino (mouse) seizure model assessed as survival at 220 mg/kg, ip administered 30 min followed by pentylenetetrazole induction measured for 30 min relative to control; type: functional; conditions: 0.5 h, route intraperitoneal
[28] = tested on: Mus musculus; assay: Anticonvulsant activity in Mus musculus albino (mouse) assessed as protection against pentylenetetrazole-induced seizure at 220 mg/kg, ip administered 30 min followed by pentylenetetrazole induction measured for 30 min relative to control; type: functional; conditions: route intraperitoneal

SMILES | Activity [1] [%] | Activity [2] [%] | Time [3] [s] | Time [4] [s] | Time [5] [s] | Time [6] [s] | Time [7] [s] | Time [8] [s] | survival at 300 mg/kg [9] [%] | survival at 100 mg/kg [10] [%] | also measured
CCOc1ccc(NCC(=O)N/N=C/c2ccccc2Cl)cc1 | 0 | 14 | 9.3 | 8.5 | 590 | 436 | 651 | 1189 | 12 | 43 | 
CCOc1ccc(NCC(=O)N/N=C/c2ccccc2[N+](=O)[O-])cc1 | 14 | 0 | 6.8 | 8.7 | 626 | 275 | 734 | 1011 | 14 | 12 | 
CCOc1ccc(NCC(=O)N/N=C/c2ccc([N+](=O)[O-])cc2)cc1 | 22 | 16 | 5.2 | 5.3 | 885 | 603 | 1286 | 1137 | 44 | 50 | Time [11]: 7.3 s; Time [12]: 643 s; Activity [13]: Toxic; Time [14]: 1528 s; survival at 50 mg/kg [15]: 67%; Activity [16]: 16%
CCOc1ccc(NCC(=O)N/N=C/c2ccccc2O)cc1 | 0 | 0 | 6.4 | 11 | 616 | 275 | 896 | 659 | 0 | 12 | Time [11]: 5.2 s; Time [12]: 903 s; Time [14]: 1055 s; survival at 50 mg/kg [15]: 33%; Activity [16]: 22%
CCOc1ccc(NCC(=O)NN=C(C)C)cc1 | 0 | 0 | 4.2 | 4.9 | 425 | 373 | 606 | 623 | 0 | 0 | 
CCOc1ccc(NCC(=O)N/N=C(/C)c2ccccc2)cc1 | 0 | 0 | 5.8 | 5.9 | 414 | 243 | 483 | 310 | 0 | 0 | 
O=C(CNc1ccc(Br)cc1)N/N=C/c1ccccc1[N+](=O)[O-] | 33 | 0 | 2.8 | 11 | 1073 | 144 | 1265 | 897 | 33 | 38 | 
O=C(CNc1ccc(Br)cc1)N/N=C/c1ccc([N+](=O)[O-])cc1 | 38 | 0 | 3.8 | 6.1 | 809 | 640 | 1456 | 1400 | 62 | 62 | Time [11]: 3.7 s; Time [12]: 596 s; Time [14]: 1122 s; survival at 50 mg/kg [15]: 50%; Activity [16]: 16%
O=C(CNc1ccc(Br)cc1)N/N=C/c1ccccc1O | 38 | 25 | 6.6 | 7.7 | 884 | 724 | 1800 | 1800 | 100 | 100 | Time [11]: 8.6 s; Time [12]: 562 s; Time [14]: 832 s; survival at 50 mg/kg [15]: 25%; Activity [16]: 25%
O=C(CNc1ccc(Br)cc1)N/N=C/c1ccccc1Cl | 14 | 0 | 4.5 | 6.4 | 514 | 403 | 781 | 885 | 29 | 25 | 
CC(C)=NNC(=O)CNc1ccc(Br)cc1 | 45 | 0 | 3.3 | 10 | 1098 | 224 | 1428 | 945 | 64 | 25 | 
C/C(=N\NC(=O)CNc1ccc(Br)cc1)c1ccccc1 | 38 | 14 | 3.1 | 11 | 915 | 498 | 1161 | 1577 | 50 | 86 | 
CCC1(c2ccccc2)C(=O)NC(=O)NC1=O [PHENOBARBITAL] |  |  |  |  |  |  |  |  |  |  | Time [17]: 2.2 s; Time [18]: 1088 s; Activity [19]: Non-toxic; Time [20]: 1800 s; survival at 15 mg/kg [21]: 100%; Activity [22]: 50%
CCCC(CCC)C(=O)[O-].[Na+] [VALPROATE SODIUM] |  |  |  |  |  |  |  |  |  |  | Time [23]: 2.3 s; Time [24]: 1207 s; Activity [25]: Non-toxic; Time [26]: 1800 s; survival at 220 mg/kg [27]: 100%; Activity [28]: 50%
